Assay results as given in patent publication US20080220450A1, “Population Based Prediction Methods for Immune Response Determinations and Methods for Verifying Immunological Response Data” (Danisco US, Inc., Genencor Division, priority 2004, published 2008).
pIC50: −log10 of the molar value.

Experiments:
[1] = test system: CD4+ T-cells and dendritic cells; assay: I-MUNE assay: CD4+ T-cell proliferation to 15-mer peptide sets presented by dendritic cells; assay type: cell-based, human; parameters: Structure Value: scale not given here; quantitative response among responders: unit not given here; settings: for Response/Peptide: SI>2.95; for statistical significance of the peptide response: conservative and non-conservative Poisson methods; for response to the peptide: beta-lactamase peptide set, 3× above the background; for effect of substitution on percent of responders to the epitope: peptide #49 variants, 69 donors; for Average percent response to epitope peptide: Table 6, repeat tests of the epitope peptide on discrete donor groups
Protocol: All peptides were obtained from a commercial source (Mimotopes, San Diego, C-A). For the I-MUNE® assay system described herein, 15-mer peptides offset by 3 amino acids that described the entire sequence of the proteins of interest were synthesized in a multipin format (See, Maeji et al., J. Immunol. Meth., 134:23-33 [1990]). Peptides were resuspended in DMSO at approximately 1 to 2 mg/ml, and stored at −70° C. prior to use. Each peptide was tested at least in duplicate, although for small peptide sets (e.g., Ber e 1), the peptides were routinely tested in triplicate.
Volunteer donor human blood buffy coat samples were obtained from two commercial sources (Stanford Blood Center, Palo Alto, Calif., and the Sacramento Medical Foundation, Sacramento, Calif.). Buffy coat samples were further purified by density separation. Each sample was HLA typed for HLA-DR and HLA-DQ using a commercial PCR-based kit (Bio-Synthesis).
Monocytes were purified by adherence to plastic in AIM V medium (Gibco/Life Technologies). Adherent cells were cultured in AIM V media containing 500 units/ml of recombinant human IL-4 (Endogen) and 800 units/ml recombinant human GM-CSF (Endogen) for 5 days. On day 5, recombinant human IL-1α (Endogen) and recombinant human TNF-α (Endogen) were added to 50 units/ml and 0.2 units/ml, respectively. On day 7, the fully matured dendritic cells were treated with 50 μg/ml mitomycin C (Sigma) for 1 hour at 37° C. Treated dendritic cells were dislodged with 50 mM EDTA in PBS, washed in AIM V medium, counted, and resuspended in AIM V media at 2×10^5 cells/ml.
CD4^+ T-cells were purified by negative selection from frozen aliquots of human peripheral blood mononuclear cells (PBMC) using Cellect CD4 columns (Cedarlane). […] CD4^+ T-cells were resuspended in AIM V media at 2×10^6 cells per ml.
CD4^+ T-cells and dendritic cells were plated in round-bottomed 96 well format plates at 100 μl of each cell mix per well. Peptide was added to a final concentration of approximately 5 ug/ml in 0.25-0.5% DMSO. Control wells contained 0.5% DMSO without added peptide. Each peptide was tested in duplicate. Cultures were incubated at 37° C., in 5% CO2 for 5 days. On day 5, 0.5 uCi of tritiated thymidine (NEN DuPont) was added to each well. On day 6, the cultures were harvested onto glass fiber mats using a TomTec manual harvester (TomTec), then processed for scintillation counting. Proliferation was assessed by determining the average counts per minute (CPM) value for each set of duplicate wells (TriLux Beta). This method is also described in U.S. Pat. No. 6,218,165 and Stickler et al., J. Immunother. 23: 654-660 (2000), both of which are herein incorporated by reference.
For each individual buffy coat sample, the average CPM values obtained in the I-MUNE® assay for all of the peptides were analyzed. The average CPM values for each peptide were divided by the average CPM value for the control (DMSO only) wells to determine the “stimulation index” (SI). Donors were tested with each peptide set until an average of at least two responses per peptide were compiled. The data for each protein was graphed showing the percent responders to each peptide within the set. A positive response was collated if the SI value was equal to or greater than 2.95. This value was chosen as it approximates a difference of three standard deviations in a normal population distribution. For each protein assessed, positive responses to individual peptides by individual donors were compiled. To determine the background response for a given protein, the percent responders for each peptide in the set were averaged and a standard deviation was calculated. SI values for each donor were compiled for each peptide set, and the percent of responders reported.

HLA-DR6(13) = assay: Peptide binding competition assay, HLA class II; parameters: species or system human; settings: competition with standard peptide
Protocol: In addition to the above I-MUNE® assay, peptide binding assays were also performed. The peptide binding assay used during the development of the present invention is known in the art (Southwood et al., J. Immunol., 160:3363-3373 [1998]). Briefly, HLA-DR and -DQ molecules were purified from a panel of EBV transformed cell lines. A competition assay was performed with a characterized standard peptide, and the unknown peptide. The amount of unknown peptide required to compete 50% of the standard peptide binding was then determined (indicated as the IC50).
The IC50 for HLA class II protein binding was determined for peptide epitopes defined by the in two related industrial bacterial proteases (See, FIG. 17). The peptides were tested in a competition assay for binding to 18 different HLA-DR and -DQ proteins. […] This likely explains the association seen in the data for a response to this peptide with HLA-DR6(13) donors (p=0.00015; relative risk=7.22, n=113 donors tested). Those results with values less than 500 nM were considered to be good binders and are highlighted in bold in FIG. 17. Also, in this Figure, degeneracy indicates the number of HLA Class II proteins that bind with an IC50 of less than 500 nM out of the 18 total alleles tested.

[2] = Table 3, Stanford and Sacramento donors

## Ecotin: serine protease inhibitor from E. coli K12; GenBank Accession No. NP—416713
[1]; Table 3
  Background %: 5.69%
  Response/Peptide: 3.98
[1]; [2]
  Structure Value: 0.64

## GTTRLYANASIGLFG (listed as Enterobacter cloacae) [Peptide #49]
[1]
  statistical significance of the peptide response: reached statistical significance using less conservative analyses

## TGGFGSYVAFLPEKQ (TGGFGSYVAFIPEKQ; listed as Enterobacter cloacae) [Peptide #107]
[1]; DR1+ responders
  quantitative response among responders: 5.4
[1]; DR1− responders
  quantitative response among responders: 4.2
[1]
  response to the peptide: 12.11%
  statistical significance of the peptide response: significant (p<0.05)

## GTTRLYANASFGLFG (synthetic variant) [I155F]
[1]
  effect of substitution on percent of responders to the epitope: had little effect

## BPN′ Y217L#37: 15-mer epitope peptide number 37 of BPN′ Y217L, amino acids 109-123 (NGIEWAIANNMDVIN)
[1]
  Average percent response to epitope peptide: 12.91%

## MLDLATYTAGGLPLQ (listed as Enterobacter cloacae) [Peptide #36]
[1]; DR1+ responders
  quantitative response among responders: 7.8
[1]; DR1− responders
  quantitative response among responders: 4.42
[1]
  response to the peptide: 12.11%
  statistical significance of the peptide response: significant (p<0.05)

## hTpo: human thrombopoietin
[1]
  structure value, in words: comparatively high
  Average percent response to epitope peptide: 9.18%
[1]; Table 2
  Average Background: 2.56
  Number of epitope regions: 1
  Response per peptide: 2.54
  Structure Value: 0.65
[1]; Table 3
  Background %: 2.53%
  Response/Peptide: 2.24
[1]; [2]
  Structure Value: 0.65
[1]; Table 5, background response value
  Background +/− sd: 2.54 +/− 2.23
[1]; Table 5, determined experimentally
  Responses/peptide found: 2.51

## GTTRLYANASVGLFG (synthetic variant) [I155V]
[1]
  effect of substitution on percent of responders to the epitope: increased the percent of responders to the modified epitope sequence

## BPN′ Y217L #24: 15-mer epitope peptide number 24 of BPN′ Y217L, amino acids 70-84 (GTVAALNNSIGVLGV)
[1]
  Average percent response to epitope peptide: 11.69%
HLA-DR6(13)
  pIC50: 9.16

## GTTRSYANASIGLFG (synthetic variant) [L149S]
[1]
  effect of substitution on percent of responders to the epitope: had an effect on the epitope response rate

## GTTRLYANASLGLFG (synthetic variant) [I155L]
[1]
  effect of substitution on percent of responders to the epitope: had little effect

## ITPLMKAQSVPGMAV (listed as Enterobacter cloacae) [Peptide #6]
[1]
  statistical significance of the peptide response: reached statistical significance using less conservative analyses
